Assay results from patent publication US8563558B2, “Substituted pyridine urea compounds” (Confluence Life Sciences, Inc., priority 2010, dated 2013).
pIC50: −log10 of the molar value. “And” between values parts separate entries of the source, which are not always exact repeats. Equal entries are not always repeated.

How the values were obtained:
[1] = target: p38α/PRAK (Homo sapiens, UniProt Q16539); experiment: p38α/PRAK cascade assay (phosphorylation of Hsp27 peptide, Caliper LabChip 3000); type: biochemical; conditions: Hsp27 peptide 1 μM, MgATP 10 μM, 30 minutes, room temperature, two values given, read-out: p38/PRAK IC50
p38α/PRAK, sequence (Q16539 whole entry): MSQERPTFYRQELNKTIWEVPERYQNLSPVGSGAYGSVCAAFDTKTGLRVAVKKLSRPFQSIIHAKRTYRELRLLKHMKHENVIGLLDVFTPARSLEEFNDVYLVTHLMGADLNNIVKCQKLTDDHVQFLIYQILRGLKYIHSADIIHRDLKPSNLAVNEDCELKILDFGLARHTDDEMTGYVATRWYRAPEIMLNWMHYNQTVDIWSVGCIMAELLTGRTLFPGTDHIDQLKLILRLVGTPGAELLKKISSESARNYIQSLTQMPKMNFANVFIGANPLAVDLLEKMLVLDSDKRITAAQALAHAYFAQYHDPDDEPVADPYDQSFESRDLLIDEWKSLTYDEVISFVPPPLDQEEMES
Protocol: (§1) P38 inhibitory potency and P38/MK2 substrate selectivity: The novel, MK2 substrate-selective inhibitory mechanism of compounds is evaluated in enzyme assays comparing inhibitor potency in blocking p38/MK2 versus p38/PRAK induced phosphorylation of an HSP-27 derived peptide substrate. The ability of compounds to inhibit activated phospho-p38α is evaluated using a p38α/MK2 and a p38α/PRAK cascade assay format. The kinase activity of p38α is determined by its ability to phosphorylate GST-MK2 or GST-PRAK. Activation of MK2 or PRAK by p38α is quantitated by measuring the phosphorylation of a fluorescently-labeled, MK2 specific peptide substrate, Hsp27 peptide (FITC-KKKALSRQLSVAA). The phosphorylation of the Hsp27 peptide is quantified using the Caliper LabChip 3000. Kinase reactions are carried out in a 384-well plate (Matrical, MP101-1-PP) in 20 mM HEPES pH 7.5, 10 mM MgCl2, 0.0005% Tween-20, 0.01% BSA, 1 mM DTT, and 2% DMSO. The inhibitor concentration is varied between 0.02-30,000 nM, while the Hsp27 peptide substrate and MgATP are held constant at 1 μM and 10 μM, respectively. Activated p38α is added to a final concentration of […] for reactions with nonphosphorylated 1 nM His6-MK2 in the cascade reaction. For the p38α/PRAK cascade, unactivated GST-PRAK is held constant at 1 nM while p38α is added in to a final concentration of […]. Kinase reactions are incubated at room temperature and quenched after 30 minutes by the addition of stop buffer (180 mM HEPES, 30 mM EDTA, and 0.2% Coating Reagent-3). Under these conditions, approximately 20% of the substrate Hsp27 peptide is phosphorylated. Reactions are initiated by the addition of activated p38α except for preincubation experiments, where reactions are initiated by the addition of Hsp27 peptide and MgATP. Preincubation of p38α with inhibitor or p38α with unactivated His6-MK2 or unactivated GST-PRAK and inhibitor are performed at 2× final assay concentrations at room temperature 240 minutes prior to adding ATP and Hsp27 peptide to initiate catalysis. The p38α compound inhibitory potency is quantitated from dose-response IC50 values or Ki values from p38α/MK2 cascade assays while the substrate selectivity is calculated as a ratio of p38α/PRAK:p38α/MK2 IC50 values. Species compounds of Formula I, described hereinabove, evaluated in this assay, are expected to provide a therapeutic benefit in the treatment of p38 kinase mediated diseases, such as autoimmune diseases and lymphoma.

[2] = target: p38α/MK2 (Homo sapiens, UniProt Q16539); experiment: p38α/MK2 cascade assay (phosphorylation of Hsp27 peptide, Caliper LabChip 3000); type: biochemical; conditions: Hsp27 peptide 1 μM, MgATP 10 μM, 30 minutes, room temperature, two values given, read-out: p38/MK2 IC50
p38α/MK2, sequence (Q16539 whole entry): as above
p38α/MK2, sequence (P49137 whole entry partner): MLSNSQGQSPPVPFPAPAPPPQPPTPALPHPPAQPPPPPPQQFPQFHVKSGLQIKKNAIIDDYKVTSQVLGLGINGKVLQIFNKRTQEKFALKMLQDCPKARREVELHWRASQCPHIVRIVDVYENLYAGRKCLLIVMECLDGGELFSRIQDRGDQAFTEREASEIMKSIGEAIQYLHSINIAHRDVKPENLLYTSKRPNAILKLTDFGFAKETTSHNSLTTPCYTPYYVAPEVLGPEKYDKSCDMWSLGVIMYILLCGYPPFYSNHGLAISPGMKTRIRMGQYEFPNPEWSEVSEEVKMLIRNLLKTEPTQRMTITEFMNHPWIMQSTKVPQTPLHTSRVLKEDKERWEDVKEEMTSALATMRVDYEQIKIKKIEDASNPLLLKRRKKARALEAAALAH
Protocol: as §1

SMILES | pIC50 [1] | pIC50 [2]
Cc1ccc(-c2ccnc(C(C)(C)O)n2)cc1N(C(N)=O)c1cccc(-c2ccc(F)cc2F)n1 [Example 5, 1-(6-(2,4-difluorophenyl)pyridin-2-yl)-1-(5-(2-(2-hydroxypropan-2-yl)pyrimidin-4-yl)-2-methylphenyl)urea] | 5.72 and 5.59 | 6.47 and 6.44
Cc1ccc(-c2ccnc(C(C)(C)C)n2)cc1N(C(N)=O)c1cccc(-c2ccc(F)cc2F)n1 [Example 31, 1-(5-(2-(tert-butyl)pyrimidin-4-yl)-2-methylphenyl)-1-(6-(2,4-difluorophenyl)pyridin-2-yl)urea] | < 4.30 | 5.90 and 5.82
Cc1nc(-c2cccc(N(C(N)=O)c3cc(-c4ccnc(C(C)(C)C)n4)ccc3C)n2)cs1 [Example 33, 1-(5-(2-(tert-butyl)pyrimidin-4-yl)-2-methylphenyl)-1-(6-(2-methylthiazol-4-yl)pyridin-2-yl)urea] | < 4.30 | 5.02 and 4.92

Results, then the compound that gave them:

pIC50 [1] | pIC50 [2] | SMILES
< 5.00 | 6.26 and 6.30 | Cc1ccc(-c2ccnc(C(C)(C)C)n2)cc1N(C(N)=O)c1ccc(C(N)=O)c(-c2ccc(F)cc2F)n1 [Example 17, 6-(1-(5-(2-(tert-butyl)pyrimidin-4-yl)-2-methylphenyl)ureido)-2-(2,4-difluorophenyl)nicotinamide]
< 5.00 | 6.08 and 6.02 | COC(=O)c1ccc(N(C(N)=O)c2cc(-c3ccnc(C(C)(C)C)n3)ccc2C)nc1-c1ccc(F)cc1F [Example 32, methyl 6-(1-(5-(2-(tert-butyl)pyrimidin-4-yl)-2-methylphenyl)ureido)-2-(2,4-difluorophenyl)nicotinate]
